Measured values: ChEMBL document CHEMBL3217548, “Biological activity and DNA binding studies of 2-substituted benzimidazo[1,2-a]quinolines bearing different amino side chains” (Medchemcomm, 2013)
Active and inactive are the calls of the source. The calls are words filed in the database; no cut-off is given here.

Legend:
Calf thymus DNA [1] = assay: Binding affinity to calf thymus DNA assessed as bathochromic shift at 20 uM by UV/visible spectrophotometry; assay type: nucleic-acid assay; details: Bos taurus
Calf thymus DNA [2] = assay: Binding affinity to calf thymus DNA assessed as hypochromic shift at 20 uM by UV/visible spectrophotometry; assay type: nucleic-acid assay; details: Bos taurus
[3] = Binding affinity to DNA (unknown origin) at 1 to 10 uM after 15 mins by DNA footprinting assay
Homo sapiens = organism: Homo sapiens; assay: Inhibition of human DNA topoisomerase 2 assessed as inhibition of DNA cleavage
[4] = molecular target: T1, DNA topoisomerase 1 (Homo sapiens) (UniProt P11387); assay: Inhibition of human DNA topoisomerase 1 assessed as inhibition of DNA cleavage
T1 sequence (whole entry): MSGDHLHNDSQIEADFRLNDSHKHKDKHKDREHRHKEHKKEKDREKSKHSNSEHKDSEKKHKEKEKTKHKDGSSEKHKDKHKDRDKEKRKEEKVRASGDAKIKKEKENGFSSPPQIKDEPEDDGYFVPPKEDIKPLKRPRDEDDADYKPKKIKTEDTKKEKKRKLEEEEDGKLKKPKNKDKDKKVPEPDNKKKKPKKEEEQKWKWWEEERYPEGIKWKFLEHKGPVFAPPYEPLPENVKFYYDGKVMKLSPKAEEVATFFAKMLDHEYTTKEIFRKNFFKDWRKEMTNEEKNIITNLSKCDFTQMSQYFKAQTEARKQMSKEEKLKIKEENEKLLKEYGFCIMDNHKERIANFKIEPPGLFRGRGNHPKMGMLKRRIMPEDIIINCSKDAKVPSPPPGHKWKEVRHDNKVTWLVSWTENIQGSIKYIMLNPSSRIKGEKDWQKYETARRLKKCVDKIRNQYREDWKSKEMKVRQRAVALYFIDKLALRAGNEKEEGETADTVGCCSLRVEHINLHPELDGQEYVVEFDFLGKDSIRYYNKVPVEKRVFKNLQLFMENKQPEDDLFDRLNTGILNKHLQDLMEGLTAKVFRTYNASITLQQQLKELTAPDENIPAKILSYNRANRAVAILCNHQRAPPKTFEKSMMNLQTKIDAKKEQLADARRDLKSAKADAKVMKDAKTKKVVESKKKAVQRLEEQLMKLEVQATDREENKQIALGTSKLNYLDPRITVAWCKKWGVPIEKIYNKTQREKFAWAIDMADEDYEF

Escherichia coli [5] = assay: Binding affinity to Escherichia coli pUC19 plasmid assessed as nicked DNA at 0.1 to 5 uM by ethidium bromide staining-based agarose gel electrophoresis
Escherichia coli [6] = assay: Binding affinity to Escherichia coli pUC19 plasmid assessed as induction of topoisomerase1-mediated DNA relaxation at 1 uM incubated for 45 mins prior to topoisomerase1 addition by agarose gel electrophoresis
Calf thymus DNA [7] = assay: Binding affinity to calf thymus DNA assessed as DNA intercalation by circular dichroism analysis; assay type: nucleic-acid assay; details: Bos taurus
Calf thymus DNA [8] = assay: Binding affinity to calf thymus DNA assessed as change in melting temperature at 0.5 drug/DNA ratio by spectrophotometry; assay type: nucleic-acid assay; details: Bos taurus
[9] = Drug uptake in human H460 cell nucleoli at 10 uM after 2 hrs by fluorescence microscopy; assay type: ADME, cell-based; details: h460, 2 h
[10] = Drug uptake in human H460 cell endoplasmic reticulum at 10 uM after 2 hrs by fluorescence microscopy; assay type: ADME, cell-based; details: h460, 2 h
HCT-116 [11] = assay: Cell cycle arrest in human HCT116 cells assessed as accumulation at subG1 phase at 5 uM after 24 hrs by propidium iodide staining-based FACS analysis; assay type: functional
HCT-116 [12] = assay: Cell cycle arrest in human HCT116 cells assessed as accumulation at subG1 phase after 24 hrs by propidium iodide staining-based FACS analysis; assay type: functional
HCT-116 [13] = assay: Cell cycle arrest in human HCT116 cells assessed as accumulation at G2/M phase at 1 uM after 48 hrs by propidium iodide staining-based FACS analysis (reference value: 28 +/- 3 %); assay type: functional
HCT-116 [14] = assay: Cell cycle arrest in human HCT116 cells assessed as accumulation at G2/M phase at 0.1 uM after 48 hrs by propidium iodide staining-based FACS analysis (reference value: 28 +/- 3 %); assay type: functional
HCT-116 [15] = assay: Cell cycle arrest in human HCT116 cells assessed as accumulation at G2/M phase at 1 uM after 24 hrs by propidium iodide staining-based FACS analysis (reference value: 29 +/- 8 %); assay type: functional
HCT-116 [16] = assay: Cell cycle arrest in human HCT116 cells assessed as accumulation at G2/M phase at 0.1 uM after 24 hrs by propidium iodide staining-based FACS analysis (reference value: 29 +/- 8 %); assay type: functional
HCT-116 [17] = assay: Cell cycle arrest in human HCT116 cells assessed as accumulation at S phase at 1 uM after 48 hrs by propidium iodide staining-based FACS analysis (reference value: 12+/- 5 %); assay type: functional
HCT-116 [18] = assay: Cell cycle arrest in human HCT116 cells assessed as accumulation at S phase at 0.1 uM after 48 hrs by propidium iodide staining-based FACS analysis (reference value: 12+/- 5 %); assay type: functional
HCT-116 [19] = assay: Cell cycle arrest in human HCT116 cells assessed as accumulation at S phase at 1 uM after 24 hrs by propidium iodide staining-based FACS analysis (reference value: 48 +/- 6 %); assay type: functional
HCT-116 [20] = assay: Cell cycle arrest in human HCT116 cells assessed as accumulation at S phase at 0.1 uM after 24 hrs by propidium iodide staining-based FACS analysis (reference value: 48 +/- 6 %); assay type: functional
HCT-116 [21] = assay: Cell cycle arrest in human HCT116 cells assessed as accumulation at G1 phase at 1 uM after 48 hrs by propidium iodide staining-based FACS analysis (reference value: 60 +/- 2 %); assay type: functional
HCT-116 [22] = assay: Cell cycle arrest in human HCT116 cells assessed as accumulation at G1 phase at 0.1 uM after 48 hrs by propidium iodide staining-based FACS analysis (reference value: 60 +/- 2 %); assay type: functional
HCT-116 [23] = assay: Cell cycle arrest in human HCT116 cells assessed as accumulation at G1 phase at 1 uM after 24 hrs by propidium iodide staining-based FACS analysis (reference value: 23 +/- 2 %); assay type: functional
HCT-116 [24] = assay: Cell cycle arrest in human HCT116 cells assessed as accumulation at G1 phase at 0.1 uM after 24 hrs by propidium iodide staining-based FACS analysis (reference value: 23 +/- 2 %); assay type: functional
HCT-116 [25] = assay: Cell cycle arrest in human HCT116 cells assessed as accumulation at subG1 phase at 1 uM after 48 hrs by propidium iodide staining-based FACS analysis (reference value: 5 +/- 2 %); assay type: functional
HCT-116 [26] = assay: Cell cycle arrest in human HCT116 cells assessed as accumulation at subG1 phase at 0.1 uM after 48 hrs by propidium iodide staining-based FACS analysis (reference value: 5 +/- 2 %); assay type: functional
HCT-116 [27] = assay: Cell cycle arrest in human HCT116 cells assessed as accumulation at subG1 phase at 1 uM after 24 hrs by propidium iodide staining-based FACS analysis (reference value: 2 +/- 0.1 %); assay type: functional
HCT-116 [28] = assay: Cell cycle arrest in human HCT116 cells assessed as accumulation at subG1 phase at 0.1 uM after 24 hrs by propidium iodide staining-based FACS analysis (reference value: 2 +/- 0.1 %); assay type: functional
MCF7 = assay: Cytotoxicity against human MCF7 cells after 72 hrs by MTT assay; assay type: functional, cell-based; details: MCF7, 72 h
[29] = Cytotoxicity against human H460 cells after 72 hrs by MTT assay; assay type: functional, cell-based; details: NCI-H460, 72 h
HCT-116 [30] = assay: Cytotoxicity against human HCT116 cells after 72 hrs by MTT assay; assay type: functional, cell-based; details: HCT-116, 72 h
DNA = assay: Induction of DNA damage in plasmid DNA in E. coli S30 cell-free system assessed as inhibition of EGFP translation at 50 uM after 1 hr by fluorescence assay

- Activity (Calf thymus DNA [1]): Active
- Activity (Calf thymus DNA [2]): Active
- Activity [3]: Active
- Activity (Homo sapiens): inactive
- Activity [4]: inactive
- Activity (Escherichia coli [5]): Active
- Activity (Escherichia coli [6]): Active
- Activity (Calf thymus DNA [7]): Dose-dependent effect
- ΔTm (Calf thymus DNA [8]): 17.3 °C
- Drug uptake [9]: Active
- Drug uptake [10]: Active
SMILES: N#Cc1cc2ccc(N3CCNCC3)cc2n2c1nc1ccccc12
- Activity (HCT-116 [11]): 40%
- Activity (HCT-116 [12]): Dose-dependent effect
- Activity (HCT-116 [13]): 69%
- Activity (HCT-116 [14]): 30%
- Activity (HCT-116 [15]): 85%
- Activity (HCT-116 [16]): 80%
- Activity (HCT-116 [17]): 1%
- Activity (HCT-116 [18]): 11%
- Activity (HCT-116 [19]): 0%
- Activity (HCT-116 [20]): 1%
- Activity (HCT-116 [21]): 30%
- Activity (HCT-116 [22]): 59%
- Activity (HCT-116 [23]): 15%
- Activity (HCT-116 [24]): 19%
- Activity (HCT-116 [25]): 12%
- Activity (HCT-116 [26]): 11%
- Activity (HCT-116 [27]): 12%
- Activity (HCT-116 [28]): 2%
- IC50 (MCF7): 200 nM
- IC50 [29]: 200 nM
- IC50 (HCT-116 [30]): 60 nM
- inhibition at 50 µM (DNA): 38%
